From patent US20250018052A1, “ANTI-HER3 ANTIBODY DRUG CONJUGATE, COMPOSITION THEREOF, AND USE THEREOF” (CHIA TAI TIANQING PHARMACEUTICAL GROUP CO., LTD., priority 2021, published 2025) come the findings set out here.

Assay [1] deals with MCF-7 cells with high HER3 expression level. The experiment in a line: Cell killing activity (CellTiter-Glo), MCF-7. In kind it is cell-based. The conditions noted are these: cultured for 96 h, 120 h, or 144 h. Here is the method:
(§1) Cells in the logarithmic growth phase were added to a 96-well plate at 100 μL/well, and the cell density was 1×10^4/mL or […]. Adherence culture was carried out at 37° C. and 5% CO2 overnight. Sample preparation: the patritumab-eribulin conjugates were each formulated into test samples with a basal medium containing 10% FBS (initial concentration of 5 μg/mL, 5-fold gradient dilution, nine gradients). Cells subjected to overnight adherence culture were taken out. For the experimental groups, the diluted test sample was added at 50 μL/well, and for the control group, the basal medium containing 10% FBS was added at 50 µL/well. The cells were then cultured for 96 h, 120 h, or 144 h, and then a CellTiter-Glo Luminescent Cell kit (Promega, Cat No.: G7572) was used for assay. The 96-well plate was taken out, the CTG detection solution (Promega. Cat No.: G7572) was added at 75 μL/well, and the mixture was well mixed by shaking and incubated at room temperature in the dark for 10 min. Then 180 μL of solution was pipetted from each well and transferred to an opaque white plate, bubbles were removed, chemiluminescence values were read, and killing rates were calculated.
(§2) Data were analyzed using Graphpad Prism5.
A general note: Cellular ATP, detected with luciferase, serves as a proxy for viable cell number.

Assay [2] concerns MDA-MB-468 cells with medium HER3 expression level. The experiment in a line: Cell killing activity (CellTiter-Glo), MDA-MB-468. The class given is cell-based. As to conditions: cultured for 96 h, 120 h, or 144 h. Here is the method: as §1, §2
For assay [3], the system named is BT474 cells with high HER3 expression level. Description: Cell killing activity (CellTiter-Glo), BT474. In kind it is cell-based. The conditions noted are these: cultured for 96 h, 120 h, or 144 h. Here is the method: as §1, §2
The subject of assay [4] is JIMT-1 cells with medium HER3 expression level. Description: Cell killing activity (CellTiter-Glo), JIMT-1. The class given is cell-based, human. As to conditions: cultured for 96 h, 120 h, or 144 h. Here is the method:
as §1, §2

For assay [5], the system named is NCI-N87 cells with medium HER3 expression level. Description: Cell killing activity (CellTiter-Glo), NCI-N87. The conditions noted are these: cultured for 96 h, 120 h, or 144 h. The class given is cell-based. Here is the method: as §1, §2
For assay [6], the system named is JIMT-1 human breast cancer cells. Description: Nude mouse subcutaneous xenograft tumor model of JIMT-1 human breast cancer cells. In kind it is in vivo, nude mice. As to conditions: 3 mg/kg, tail vein injection, Q1W, d21; for Tumor growth inhibition rate 1-T/C: from relative tumor volume; for Tumor inhibition rate TGI: from tumor weight. Here is the method: The in vivo efficacy of the patritumab-eribulin conjugates prepared in Example 4 above was evaluated by the nude mouse subcutaneous xenograft tumor models of JIMT-1 human breast cancer cells, a trastuzumab-resistant cell strain.
SPF-grade female nude mice (from Changzhou Cavens Laboratory Animal Ltd.) were inoculated subcutaneously at the right side armpit with 2×10^6 JIMT-1 cells per mouse. When the mean tumor volume reached […], the animals were divided into 5 groups of 6, and the specific grouping and administration regimen are shown in Table 6.
The day of grouping was do, and the tail vein administration was performed at d1 after grouping. The tumor volume was measured 2-3 times a week, and meanwhile, the mice were weighed and the data were recorded; the general behavior of the mice was observed and recorded every day. After the experiment was completed, the tumors were removed, weighed, and photographed.
(In general: Xenograft models place foreign cells or tissue in a host animal.)

Assay [7] relates to SKBR3 cells with medium HER3 expression level. Description: Cell killing activity (CellTiter-Glo), SKBR3. In kind it is cell-based. The conditions noted are these: cultured for 96 h, 120 h, or 144 h. Here is the method: as §1, §2
For assay [8], the system named is HCC1569 cells with high HER3 expression level. The experiment in a line: Cell killing activity (CellTiter-Glo), HCC1569. The class given is cell-based. The conditions noted are these: cultured for 96 h, 120 h, or 144 h. Here is the method: as §1, §2

As a reminder, the EC50 is the concentration that produces a half-maximal response. Read a high EC50 as a less potent agent. Regarding “Patritumab-eribulin-D4: patritumab-eribulin conjugate (MC-GGFG-eribulin linker-payload) with DAR of 4.0-4.2”, the EC50 in assay [1] came to 0.0994 nM; in assay [2], 1.41 nM; in assay [3] it was 0.0398 nM; in assay [4], 3.27 nM; in assay [5] it was 13.9 nM; in assay [7], 0.043 nM. Moreover, the concentration giving a half-maximal response (EC50) in assay [8] came out at 0.778 nM. Further, the “Tumor growth inhibition rate 1-T/C” value in assay [6] was found to be 65.9%. In addition, the “Tumor inhibition rate TGI” value in assay [6] turned out to be 68.9%.

“Patritumab-eribulin-D8: patritumab-eribulin conjugate (MC-GGFG-eribulin linker-payload) with a DAR of 7.6”: the EC50 in assay [1] came out at 0.0361 nM; in assay [2], 0.321 nM; in assay [3] it was 0.0181 nM; in assay [4], 0.946 nM; in assay [5] it was 0.691 nM; in assay [7], 0.0232 nM. Moreover, in assay [8], the EC50 is 0.246 nM. In addition, the “Tumor growth inhibition rate 1-T/C” value in assay [6] came to 82.9%. In addition, the “Tumor inhibition rate TGI” value in assay [6] is reported as 84.3%.

As for “Patritumab-eribulin-D2: patritumab-eribulin conjugate (MC-GGFG-eribulin linker-payload) with a DAR of 2.6”, the EC50 in assay [1] is 1.17 nM; in assay [2], 12.1 nM; in assay [3], 0.0935 nM; in assay [4] it was 10.5 nM; in assay [7], 0.194 nM; in assay [8], 3.6 nM. Also, in assay [6], the “Tumor growth inhibition rate 1-T/C” value is 36.6%. For the same substance, the “Tumor inhibition rate TGI” value in assay [6] is reported as 41.1%.

“Patritumab-DDDXd-D8: patritumab-DDDXd conjugate (MC-GGFG-DDDXd, deuterated MC-GGFG-DXd) with a DAR of 7.9, used as control [reference compound]”: the EC50 was found to be 10.4 nM in assay [3], 0.371 nM in assay [5], 57.9 nM in assay [7] and 18.3 nM in assay [8]. Further, the “Tumor growth inhibition rate 1-T/C” value in assay [6] stood at 24.4%. Moreover, in assay [6], the “Tumor inhibition rate TGI” value is 26.6%.
